{"source": "paper PMC12314070", "about": "(Nature Communications, 2025)", "key": {"[1]": {"test_system": "E. Coli MG1655-mcr-1", "experiment": "Neutropenic thigh infection model", "type": "in vivo, mice", "settings": "colistin resistant E. coli thigh infection, 20 mg/kg once daily s.c."}, "[2]": {"test_system": "S. aureus USA 300", "experiment": "MIC assay", "type": "cell-based, Staphylococcus aureus", "settings": "Table 1, Met^R, MDR"}, "[3]": {"test_system": "A. baumannii BNCC 194496", "experiment": "MIC assay", "type": "cell-based, Acinetobacter baumannii", "settings": "Table 1, Cip^R"}, "[4]": {"test_system": "A. baumannii BNCC194496-mcr-1", "experiment": "MIC assay", "type": "cell-based", "settings": "Acinetobacter baumannii, BNCC194496MCR1"}, "[5]": {"test_system": "S. aureus BNCC 186335", "experiment": "MIC assay", "type": "cell-based", "settings": "Staphylococcus aureus, BNCC186335, Table 1, Azm^R, Pen^R"}}, "note": "Positions of bridges follow the written chain, without caps; N, C: chain ends. Non-standard residues stand in square brackets, D forms with d. Residues, ends and D or L forms follow the SMILES beside them. *: point of attachment. X1 = CC[C@H](C)CCCCC(=O)*; Dab = NCC[C@H](N)C(=O)O"}
{"smiles": "CC[C@H](C)CCCCC(=O)N[C@@H](CCN)C(=O)N[C@H](C(=O)N[C@@H](CCN)C(=O)N[C@H]1CCNC(=O)[C@H]([C@@H](C)O)NC(=O)[C@H](CCN)NC(=O)[C@H](CCN)NC(=O)[C@H](CC(C)C)NC(=O)[C@@H](CC(C)C)NC(=O)[C@H](CCN)NC1=O)[C@@H](C)O", "note": "[Colistin] (X1-[Dab]T[Dab][Dab][Dab][dL]L[Dab][Dab]T; lactam 4-C; N-terminus assumed)", "values": [{"measurement": "reduction of bacterial burden", "setting": "[1]", "result": "no activity"}]}
{"smiles": "COc1cccc(OC)c1C(=O)N[C@@H]1C(=O)N2[C@@H]1SC(C)(C)[C@@H]2C(=O)O", "note": "[Methicillin]", "values": [{"measurement": "MIC", "setting": "[2]", "result": ">64", "unit": "µg/mL"}]}
{"smiles": "CO/N=C(\\C(=O)N[C@@H]1C(=O)N2C(C(=O)O)=CCS[C@H]12)c1csc(N)n1", "note": "[Ceftizoxime]", "values": [{"measurement": "MIC", "setting": "[3]", "result": 4, "unit": "µg/mL"}, {"measurement": "MIC", "setting": "[4]", "result": 4, "unit": "µg/mL"}]}
{"smiles": "CN[C@H](CC(C)C)C(=O)N[C@H]1C(=O)N[C@@H](CC(N)=O)C(=O)N[C@H]2C(=O)N[C@H]3C(=O)N[C@H](C(=O)N[C@H](C(=O)O)c4cc(O)cc(O)c4-c4cc3ccc4O)[C@H](O)c3ccc(c(Cl)c3)Oc3cc2cc(c3O[C@@H]2O[C@H](CO)[C@@H](O)[C@H](O)[C@H]2O[C@H]2C[C@](C)(N)[C@H](O)[C@H](C)O2)Oc2ccc(cc2Cl)[C@H]1O", "note": "[Vancomycin]", "values": [{"measurement": "MIC", "setting": "[2]", "result": 1, "unit": "µg/mL"}, {"measurement": "MIC", "setting": "[5]", "result": 0.5, "unit": "µg/mL"}]}
